Here are results for two compounds from PMC6179058, “Design, synthesis, and biological evaluation of novel iso-flavones derivatives as H3R antagonists” (Journal of Enzyme Inhibition and Medicinal Chemistry, 2018).

This experiment addresses T1, human H3R (histamine receptor 3) (Homo sapiens, UniProt Q9Y5N1).
T1 construct: gene HRH3; human H3R fused via TEV protease site to Gal4-VP16 transcription factor; stably expressed in H3-bla U2OS cells (Invitrogen) with beta-arrestin/TEV protease fusion and UAS beta-lactamase reporter
The experiment is described as follows: beta-arrestin/TEV beta-lactamase FRET reporter assay, antagonist mode. The following applies: read-out: Inhibit rate (%) at 10 μM. Type of experiment: cell-based. The text has this: beta-arrestin/TEV beta-lactamase FRET reporter assay, antagonist mode on human H3R (histamine receptor 3)

T1 sequence (Q9Y5N1 whole entry, the tested form may be a part): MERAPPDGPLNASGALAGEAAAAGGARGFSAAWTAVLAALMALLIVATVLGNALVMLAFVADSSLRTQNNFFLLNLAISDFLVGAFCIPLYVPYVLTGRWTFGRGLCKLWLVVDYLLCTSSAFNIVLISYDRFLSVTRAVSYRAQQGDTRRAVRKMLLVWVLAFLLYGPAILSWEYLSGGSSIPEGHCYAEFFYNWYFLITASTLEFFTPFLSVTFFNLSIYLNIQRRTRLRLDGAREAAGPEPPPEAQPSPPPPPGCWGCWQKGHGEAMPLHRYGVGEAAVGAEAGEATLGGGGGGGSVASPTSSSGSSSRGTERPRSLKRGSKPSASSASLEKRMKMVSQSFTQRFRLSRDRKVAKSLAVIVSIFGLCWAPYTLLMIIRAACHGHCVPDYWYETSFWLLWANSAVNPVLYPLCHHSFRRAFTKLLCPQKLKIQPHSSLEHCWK

Regarding `O=c1c(-c2ccc(O)cc2)coc2c(CN3CCCC3)c(O)ccc12` [2f, 7-hydroxy-3-(4-hydroxyphenyl)-8-(pyrrolidin-1-ylmethyl)-4H-chromen-4-one], the inhibition at 10 µM was 18.7%.

Consider `COc1ccc(-c2coc3c(CN4CCCC4)c(O)ccc3c2=O)cc1` [2m, 7-hydroxy-3-(4-methoxyphenyl)-8-(pyrrolidin-1-ylmethyl)-4H-chromen-4-one], for which the inhibition at 10 µM turned out to be 14.6%.
